Laboratory results taken from patent US9365566B2 (Takeda Pharmaceutical Company Limited, priority 2012, dated 2016).

molecular target: T1, human BTK (Homo sapiens, UniProt Q06187); test: BTK inhibition assay: BTK-mediated phosphorylation of FAM-labeled substrate 5-FAM-EEPLYWSFPAKKK-NH2 (Caliper LC-3000); assay type: biochemical; conditions: pIC50 = -log(IC50), IC50 molar; residues 382 to 659 of human BTK; incubated at room temperature for 60 minutes; larger values represent higher potency
T1 construct: GST (Glutathione-S-Transferase) (cleaved yes); made in house; host or cells: Spodoptera frugiperda Sf9 cells (baculovirus, Bac-to-Bac)
From the text: The activity of compounds as BTK inhibitors may be determined by a variety of methods, including in vitro and in vivo methods.
This construct engineers an in-frame translational fusion with the Glutathione-S-Transferase (GST) protein for use in affinity purification. The fusion protein derived from this construct contains a protease recognition sequence to liberate the BTK from the GST affinity tag. High-titer baculoviral stocks, generated using the Bac-to-Bac® system (Invitrogen), are used to express the recombinant protein in Spodoptera frugiperda Sf9 cells in 10 L Wave bags. Recombinant proteins are isolated from cellular extracts by passage over Glutathione Sepharose 4B (GE Healthcare) and the BTK moiety is released from the GST affinity tag by treatment with PreScission protease. The BTK recombinant protein is further purified by size exclusion chromatography (HiLoad 16/60 Superdex 200, GE Healthcare) in a buffer containing 20 mM Hepes (pH 7.4), 50 mM NaCl, 10 mM MgCl2, 0.25 mM TCEP and 0.1 mM EDTA. The purity of the fractions is assessed by SDS PAGE and the peak protein fractions are pooled and concentrated using Amicon Ultra-15 Centrifugal Filter Devices (Millipore).
The inhibitory properties of compounds relative to BTK is determined using a black 384-well-plate format in a buffer which contains 50 mM Hepes, 10 mM NaCl, 10 mM MgCl2, 0.2 mM EDTA, 0.01% Brij35®, 1 mM DTT, and 0.1 mg/mL BSA at pH 7.3. The test compound is prepared in DMSO using 2-fold serial dilutions for 11 data points, which are added to the buffer so that each dilution contains 3% DMSO. […] The reaction mixtures are incubated at room temperature for 60 minutes and then quenched by adding 25 μL of 50 mM EDTA. To quantify the fluorescent-labeled substrate and product following reaction, the test plate is loaded on a Caliper LC-3000, which measures percent of conversion by microfluidic-based separation.
The compounds were tested in accordance with the assay described on page 34 of the specification.

T1 sequence (Q06187 382-659): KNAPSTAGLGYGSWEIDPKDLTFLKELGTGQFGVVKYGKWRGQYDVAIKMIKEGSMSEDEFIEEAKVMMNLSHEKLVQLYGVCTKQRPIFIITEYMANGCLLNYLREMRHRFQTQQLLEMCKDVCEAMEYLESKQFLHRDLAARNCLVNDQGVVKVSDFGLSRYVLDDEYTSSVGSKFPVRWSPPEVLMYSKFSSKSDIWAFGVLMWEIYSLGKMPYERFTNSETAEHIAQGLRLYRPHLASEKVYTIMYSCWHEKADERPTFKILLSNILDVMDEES

Row | SMILES | IC50 [nM]
1 | NC(=O)c1nnc2c(-c3cc(F)c4c(c3)CC(=O)N4)cccc2c1N [Example 6, 4-amino-8-(7-fluoro-2-oxoindolin-5-yl)cinnoline-3-carboxamide] | 3160
2 | Cn1cnc2cc(-c3cccc4c(N)c(C(N)=O)nnc34)ccc21 [Example 12, 4-amino-8-(1-methyl-1H-benzo[d]imidazol-5-yl)cinnoline-3-carboxamide] | 15800
3 | Cc1ccc2c(N)c(C(N)=O)nnc2c1-c1ccc2cnn(C)c2c1 [Example 45, 4-amino-7-methyl-8-(1-methyl-1H-indazol-6-yl)cinnoline-3-carboxamide] | 100
4 | NC(=O)c1nnc2c(-c3ccc4c(c3)ncn4C3CCCCC3)cccc2c1N [Example 18, 4-amino-8-(1-cyclohexyl-1H-benzo[d]imidazol-5-yl)cinnoline-3-carboxamide] | 1260
5 | NC(=O)c1nnc2c(-c3ccc4nc(C5CCCCC5)[nH]c4c3)cccc2c1N [Example 68, 4-amino-8-(2-cyclohexyl-1H-benzo[d]imidazol-6-yl)cinnoline-3-carboxamide] | 158
6 | Cc1ccc2c(N)c(C(N)=O)nnc2c1-c1ccc2ccncc2c1 [Example 57, 4-amino-8-(isoquinolin-7-yl)-7-methylcinnoline-3-carboxamide] | 200
7 | Cn1ncc2ccc(-c3cccc4c(N)c(C(N)=O)nnc34)cc21 [Example 1, 4-amino-8-(1-methyl-1H-indazol-6-yl)cinnoline-3-carboxam] | 1580
8 | NC(=O)c1nnc2c(-c3ccc4nc(-c5cncs5)[nH]c4c3)cccc2c1N [Example 82, 4-amino-8-(2-(thiazol-5-yl)-1H-benzo[d]imidazol-6-yl)cinnoline-3-carboxamide] | 200
9 | Cc1ccc2c(N)c(C(N)=O)nnc2c1-c1ccc2nncn2c1 [Example 112, 8-([1,2,4]triazolo[4,3-a]pyridin-6-yl)-4-amino-7-methylcinnoline-3-carboxamide] | 100
10 | CC(C)n1cnc2cc(-c3cccc4c(N)c(C(N)=O)nnc34)ccc21 [Example 17, 4-amino-8-(1-isopropyl-1H-benzo[d]imidazol-5-yl)cinnoline-3-carboxamide] | 50100
11 | NC(=O)c1nnc2c(-c3ccc4c(c3)NC(=O)C4)cccc2c1N [Example 20, 4-amino-8-(2-oxoindolin-6-yl)cinnoline-3-carboxamide] | 39800
12 | Cc1ccc2c(N)c(C(N)=O)nnc2c1-c1ccc2[nH]nc(C)c2c1 [Example 50, 4-amino-7-methyl-8-(3-methyl-1H-indazol-5-yl)cinnoline-3-carboxamide] | 100
13 | Cc1ccc2c(N)c(C(N)=O)nnc2c1-c1ccc2c(C3CC3)n[nH]c2c1 [Example 106, 4-amino-8-(3-cyclopropyl-1H-indazol-6-yl)-7-methylcinnoline-3-carboxamide] | 501
14 | NC(=O)c1nnc2c(-c3ccc4nc(-c5cccs5)[nH]c4c3)cccc2c1N [Example 79, 4-amino-8-(2-(thiophen-2-yl)-1H-benzo[d]imidazol-6-yl)cinnoline-3-carboxamide] | 316
15 | NC(=O)c1nnc2c(-c3ccc4nc(Cc5ccccc5)[nH]c4c3)cccc2c1N [Example 77, 4-amino-8-(2-benzyl-1H-benzo[d]imidazol-6-yl)cinnoline-3-carboxamide] | 631
16 | NC(=O)c1nnc2c(-c3ccc4nc(CC5CCCCC5)[nH]c4c3)cccc2c1N [Example 78, 4-amino-8-(2-(cyclohexylmethyl)-1H-benzo[d]imidazol-6-yl)cinnoline-3-carboxamide] | 79.4
17 | Cc1ccc2c(N)c(C(N)=O)nnc2c1-c1ccc2c(c1)c(C)nn2C [Example 36, 4-amino-8-(1,3-dimethyl-1H-indazol-5-yl)-7-methylcinnoline-3-carboxamide] | 501
18 | NC(=O)c1nnc2c(N3CCc4cn[nH]c4C3)cccc2c1N [Example 85, 4-amino-8-(4,5-dihydro-1H-pyrazolo[3,4-c]pyridin-6(7H)-yl)cinnoline-3-carboxamide] | 1000
19 | Cn1ncc2cc(-c3cc(C(F)(F)F)cc4c(N)c(C(N)=O)nnc34)ccc21 [Example 34, 4-amino-8-(1-methyl-1H-indazol-5-yl)-6-(trifluoromethyl)cinnoline-3-carboxamide] | 1580
20 | CN1CCc2cc(-c3cccc4c(N)c(C(N)=O)nnc34)ccc21 [Example 7, 4-amino-8-(1-methylindolin-5-yl)cinnoline-3-carboxamide] | 5010
21 | NC(=O)c1nnc2c(-c3ccc4c(c3)CC(=O)N4)cccc2c1N [Example 8, 4-amino-8-(2-oxoindolin-5-yl)cinnoline-3-carboxamide] | 1260
22 | NC(=O)c1nnc2c(-c3ccc4nc(-c5cccc(C(F)(F)F)c5)[nH]c4c3)cccc2c1N [Example 71, 4-amino-8-(2-(3-(trifluoromethyl)phenyl)-1H-benzo[d]imidazol-6-yl)cinnoline-3-carboxamide] | 316
23 | Cc1ccc2c(N)c(C(N)=O)nnc2c1-c1cc(C)c2[nH]ncc2c1 [Example 33, 4-amino-7-methyl-8-(7-methyl-1H-indazol-5-yl)cinnoline-3-carboxamide] | 50.1
24 | CC(C)(C)Cc1nc2ccc(-c3cccc4c(N)c(C(N)=O)nnc34)cc2[nH]1 [Example 66, 4-amino-8-(2-neopentyl-1H-benzo[d]imidazol-6-yl)cinnoline-3-carboxamide] | 631

Next, values leading:

Row | IC50 [nM] | SMILES
25 | 10 | Cc1cc(-c2cc3[nH]ncc3cc2C)c2nnc(C(N)=O)c(N)c2c1 [Example 64, 4-amino-6-methyl-8-(5-methyl-1H-indazol-6-yl)cinnoline-3-carboxamide]
26 | 39.8 | Cc1cc2c(cnn2C)cc1-c1cccc2c(N)c(C(N)=O)nnc12 [Example 55, 4-amino-8-(1,6-dimethyl-1H-indazol-5-yl)cinnoline-3-carboxamide]
27 | 5.01 | CCc1ccc2c(N)c(C(N)=O)nnc2c1-c1ccc2c(c1)CNC2=O [Example 129, 4-amino-7-ethyl-8-(1-oxoisoindolin-5-yl)cinnoline-3-carboxamide]
28 | 6.31 | Cc1ccc2c(N)c(C(N)=O)nnc2c1-c1ccc2c(c1)CNC2=O [Example 124, 4-amino-7-methyl-8-(1-oxoisoindolin-5-yl)cinnoline-3-carboxamide]
29 | 39.8 | NC(=O)c1nnc2c(-c3ccc4nc(-c5ccc(F)cc5)[nH]c4c3)cccc2c1N [Example 116, 4-amino-8-(2-(4-fluorophenyl)-1H-benzo[d]imidazol-6-yl)cinnoline-3-carboxamide]
30 | 50.1 | Cc1ccc2c(N)c(C(N)=O)nnc2c1-c1cc(C)c2c(cnn2C)c1 [Example 32, 4-amino-8-(1,7-dimethyl-1H-indazol-5-yl)-7-methylcinnoline-3-carboxamide]
31 | 7.94 | Cc1ccc2c(N)c(C(N)=O)nnc2c1-c1ccc2cn[nH]c2c1 [Example 28, 4-amino-8-(1H-indazol-6-yl)-7-methylcinnoline-3-carboxamide]
32 | 12.6 | COc1ccc2c(N)c(C(N)=O)nnc2c1-c1ccc2[nH]ncc2c1 [Example 51, 4-amino-8-(1H-indazol-5-yl)-7-methoxycinnoline-3-carboxamide]
33 | 2 | COc1cc2cn[nH]c2cc1-c1ccc(F)c2c(N)c(C(N)=O)nnc12 [Example 111, 4-amino-5-fluoro-8-(5-methoxy-1H-indazol-6-yl)cinnoline-3-carboxamide]
34 | 25.1 | CC(C)(O)CCN1Cc2cc(-c3cccc4c(N)c(C(N)=O)nnc34)ccc2C1=O [Example 127, 4-amino-8-(2-(3-hydroxy-3-methylbutyl)-1-oxoisoindolin-5-yl)cinnoline-3-carboxamide]
35 | 20 | Cc1ccc2c(N)c(C(N)=O)nnc2c1-c1ccc2[nH]nnc2c1 [Example 48, 4-amino-8-(1H-benzo[d][1,2,3]triazol-5-yl)-7-methylcinnoline-3-carboxamide]
36 | 10 | COc1cc(C)c(-c2ccc3cn[nH]c3c2)c2nnc(C(N)=O)c(N)c12 [Example 42, 4-amino-8-(1H-indazol-6-yl)-5-methoxy-7-methylcinnoline-3-carboxamide]
37 | 39.8 | Cc1cc(C)cc(-c2nc3ccc(-c4cccc5c(N)c(C(N)=O)nnc45)cc3[nH]2)c1 [Example 80, 4-amino-8-(2-(3,5-dimethylphenyl)-1H-benzo[d]imidazol-6-yl)cinnoline-3-carboxamide]
38 | 31.6 | Cc1ccc2c(N)c(C(N)=O)nnc2c1-c1ccc2c(cnn2C)c1 [Example 25, 4-amino-7-methyl-8-(1-methyl-1H-indazol-5-yl)cinnoline-3-carboxamide]
39 | 15.8 | NC(=O)c1nnc2c(-c3cc4[nH]ncc4cc3Cl)ccc(F)c2c1N [Example 107, 4-amino-8-(5-chloro-1H-indazol-6-yl)-5-fluorocinnoline-3-carboxamide]
